From ChEMBL document CHEMBL1159300, “Salmahyrtisol A, a novel cytotoxic sesterterpene from the Red Sea sponge Hyrtios erecta” (J Nat Prod, 2002)

What was measured:
Assay type in all cases: functional, cell-based
[1] = test system: P388; experiment: Cytotoxicity against mouse P388 cells
[2] = test system: HT-29; experiment: Cytotoxicity against human HT-29 cells
[3] = test system: A549; experiment: Cytotoxicity against human A549 cells

Measured: IC50

CC(=O)OC[C@]1(C)CCC[C@]2(C)[C@H]3C[C@@H](O)[C@]4(C)C5=C(CC[C@H]4[C@]3(C)CC[C@@H]12)COC5=O
≥ 1 µg/mL: all assays above

CC(=O)O[C@H]1CC[C@]2(C)[C@H]3C[C@@H](O)[C@]4(C)C5=C(CC[C@H]4[C@]3(C)CC[C@H]2C1(C)C)COC5=O
≥ 1 µg/mL: all assays above

CC(=O)O[C@@H]1c2occc2[C@@H](O)C[C@H]2[C@]3(C)CC[C@H]4C(C)(C)CCC[C@]4(C)[C@H]3C[C@@]21C [SALMAHYRTISOL A]
≥ 1 µg/mL: all assays above

CC1(C)CCC[C@]2(C)[C@H]3C[C@@H](O)[C@]4(C)c5cocc5C(=O)C[C@H]4[C@]3(C)CC[C@@H]12 [SALMAHYRTISOL B]
≥ 1 µg/mL: all assays above
